In ChEMBL document CHEMBL1147199, “Exploration of the correlation between the structure, hemolytic activity, and cytotoxicity of steroid saponins” (Bioorg Med Chem, 2007):

Legend:
Type in all cases: cell-based, Erythrocyte
[1] = Cytotoxicity against human erythrocytes assessed as hemolytic activity at 75 ug/ml after 60 mins
[2] = Cytotoxicity against human erythrocytes assessed as hemolytic activity after 60 mins; details: read-out: HD50
[3] = Cytotoxicity against human erythrocytes assessed as hemolytic activity at 50 ug/ml after 60 mins; details: read-out: Activity
[4] = Cytotoxicity against human erythrocytes assessed as hemolytic activity at 30 ug/ml after 60 mins; details: read-out: Activity
[5] = Cytotoxicity against human erythrocytes assessed as hemolytic activity at 100 ug/ml after 60 mins; details: for Activity: erythrocyte, 1 h
[6] = Cytotoxicity against human erythrocytes assessed as hemolytic activity at 40 ug/ml after 60 mins; details: read-out: Activity

Compound	HC50 at 1 h [2] [µM]	other results
CC(=O)OC[C@H]1O[C@@H](O[C@H]2CC[C@@]3(C)C(=CC[C@H]4[C@@H]5C[C@@H]6O[C@]7(CC[C@@H](C)CO7)[C@@H](C)[C@@H]6[C@@]5(C)CC[C@@H]43)C2)[C@H](O[C@@H]2O[C@@H](C)[C@H](OC(C)=O)[C@@H](O)[C@H]2O)[C@@H](O)[C@@H]1O	> 75	hemolysis % ([1]; erythrocyte): 8%
CC(=O)O[C@@H]1[C@@H](O)[C@@H](O)[C@H](OC[C@H]2O[C@@H](O[C@H]3CC[C@@]4(C)C(=CC[C@H]5[C@@H]6C[C@@H]7O[C@]8(CC[C@@H](C)CO8)[C@@H](C)[C@@H]7[C@@]6(C)CC[C@@H]54)C3)[C@H](O)[C@@H](O)[C@@H]2O)O[C@H]1C	> 50	hemolysis at 1 h, 50 ug/ml [3]: 12%
CC(=O)OC[C@H]1O[C@@H](O[C@H]2CC[C@@]3(C)C(=CC[C@H]4[C@@H]5C[C@@H]6O[C@]7(CC[C@@H](C)CO7)[C@@H](C)[C@@H]6[C@@]5(C)CC[C@@H]43)C2)[C@H](O[C@@H]2O[C@@H](C)[C@H](O)[C@@H](O)[C@H]2O)[C@@H](O)[C@@H]1O	> 75	hemolysis at 1 h, 75 ug/ml ([1]; human, human erythrocytes, read-out: Activity): 29%
CC(=O)O[C@@H]1[C@@H](O)[C@@H](O)[C@H](O[C@H]2[C@H](O)[C@@H](O)[C@H](O[C@H]3CC[C@@]4(C)C(=CC[C@H]5[C@@H]6C[C@@H]7O[C@]8(CC[C@@H](C)CO8)[C@@H](C)[C@@H]7[C@@]6(C)CC[C@@H]54)C3)O[C@@H]2CO)O[C@H]1C	29.3	
CC(=O)O[C@H]1C[C@@H]2[C@H](CC[C@]3(C)[C@@H]4[C@H](C[C@@H]23)O[C@]2(CC[C@@H](C)CO2)[C@H]4C)[C@@]2(C)C[C@@H](O)[C@H](O[C@@H]3O[C@H](CO)[C@@H](O[C@H]4O[C@H](C)[C@@H](O)[C@H](O)[C@@H]4O)[C@H](O)[C@H]3O[C@H]3O[C@H](C)[C@@H](O)[C@H](O)[C@@H]3O)C[C@H]12	> 30	hemolysis at 1 h, 30 ug/ml [4]: 34%
CCCCCCCCCCCCCCCC(=O)O[C@H]1C[C@@H]2[C@H](CC[C@]3(C)[C@@H]4[C@H](C[C@@H]23)O[C@]2(CC[C@@H](C)CO2)[C@H]4C)[C@@]2(C)C[C@@H](O)[C@H](O[C@@H]3O[C@H](CO)[C@@H](O[C@H]4O[C@H](C)[C@@H](O)[C@H](O)[C@@H]4O)[C@H](O)[C@H]3O[C@H]3O[C@H](C)[C@@H](O)[C@H](O)[C@@H]3O)C[C@H]12	> 100	Activity [5]: Not Active
C[C@@H]1CC[C@@]2(OC1)O[C@H]1C[C@H]3[C@@H]4CC=C5C[C@@H](O[C@@H]6O[C@H](CO)[C@@H](O[C@@H]7O[C@@H](C)[C@H](O)[C@@H](O)[C@H]7O)[C@H](O)[C@H]6O)CC[C@]5(C)[C@H]4CC[C@]3(C)[C@H]1[C@@H]2C	27.3	
CCCCCCCCCCCC(=O)O[C@H]1C[C@@H]2[C@H](CC[C@]3(C)[C@@H]4[C@H](C[C@@H]23)O[C@]2(CC[C@@H](C)CO2)[C@H]4C)[C@@]2(C)C[C@@H](O)[C@H](O[C@@H]3O[C@H](CO)[C@@H](O[C@H]4O[C@H](C)[C@@H](O)[C@H](O)[C@@H]4O)[C@H](O)[C@H]3O[C@H]3O[C@H](C)[C@@H](O)[C@H](O)[C@@H]3O)C[C@H]12	> 100	hemolysis at 1 h, 100 ug/ml ([5]; human erythrocytes, read-out: Activity): 8.5%
CO[C@]1(CCC(C)CO[C@@H]2O[C@H](CO)[C@@H](O)[C@H](O)[C@H]2O)O[C@H]2C[C@H]3[C@@H]4CC=C5C[C@@H](O[C@@H]6O[C@H](CO)[C@@H](O[C@H]7O[C@H](C)[C@@H](O)[C@H](O)[C@@H]7O)[C@H](O)[C@H]6O[C@H]6O[C@H](C)[C@@H](O)[C@H](O)[C@@H]6O)[C@H](O)C[C@]5(C)[C@H]4CC[C@]3(C)[C@H]2[C@@H]1C (stereo partly specified)	> 100	Activity [5]: Not Active
CO[C@]1(CCC(C)CS[C@@H]2O[C@H](CO)[C@@H](O)[C@H](O)[C@H]2O)O[C@H]2C[C@H]3[C@@H]4CC=C5C[C@@H](O[C@@H]6O[C@H](CO)[C@@H](O[C@H]7O[C@H](C)[C@@H](O)[C@H](O)[C@@H]7O)[C@H](O)[C@H]6O[C@H]6O[C@H](C)[C@@H](O)[C@H](O)[C@@H]6O)[C@H](O)C[C@]5(C)[C@H]4CC[C@]3(C)[C@H]2[C@@H]1C (stereo partly specified)	> 100	Activity [5]: Not Active
C[C@@H]1CC[C@@]2(OC1)O[C@H]1C[C@H]3[C@@H]4CC=C5C[C@@H](O[C@@H]6O[C@H](CO)[C@@H](O[C@@H]7O[C@@H](C)[C@H](O)[C@@H](O)[C@H]7O)[C@H](O)[C@H]6O[C@@H]6O[C@@H](C)[C@H](O)[C@@H](O)[C@H]6O)CC[C@]5(C)[C@H]4CC[C@]3(C)[C@H]1[C@@H]2C [DIOSCIN]	6.8	
C[C@@H]1CC[C@@]2(OC1)O[C@H]1C[C@H]3[C@@H]4CC=C5C[C@@H](O[C@@H]6O[C@H](CO)[C@@H](O)[C@H](O)[C@H]6O)CC[C@]5(C)[C@H]4CC[C@]3(C)[C@H]1[C@@H]2C [DISOGLUSIDE]	> 100	Activity [5]: Not Active
C[C@@H]1CC[C@@]2(OC1)O[C@H]1C[C@H]3[C@@H]4CC=C5C[C@@H](O[C@@H]6O[C@H](CO)[C@@H](O)[C@H](O)[C@H]6O[C@@H]6O[C@@H](C)[C@H](O)[C@@H](O)[C@H]6O)CC[C@]5(C)[C@H]4CC[C@]3(C)[C@H]1[C@@H]2C [OPHIOPOGONIN C]	21.6	
C[C@@H]1CC[C@@]2(OC1)O[C@H]1C[C@H]3[C@@H]4CC=C5C[C@@H](O[C@@H]6O[C@H](CO)[C@@H](O)[C@H](O[C@@H]7O[C@@H](C)[C@H](O)[C@@H](O)[C@H]7O)[C@H]6O)CC[C@]5(C)[C@H]4CC[C@]3(C)[C@H]1[C@@H]2C [POLYPHILLIN C]	> 40	hemolysis at 1 h, 40 ug/ml [6]: 15%
C[C@@H]1CC[C@@]2(OC1)O[C@H]1C[C@H]3[C@@H]4CC=C5C[C@@H](O[C@@H]6O[C@H](CO)[C@@H](O[C@H]7O[C@H](CO)[C@@H](O)[C@@H]7O)[C@H](O)[C@H]6O[C@H]6O[C@H](C)[C@@H](O)[C@H](O)[C@@H]6O)CC[C@]5(C)[C@H]4CC[C@]3(C)[C@H]1[C@@H]2C [POLYPHILLIN D]	3.9	
C[C@@H]1CC[C@@]2(OC1)O[C@H]1C[C@H]3[C@@H]4CC=C5C[C@@H](O[C@@H]6O[C@H](CO)[C@@H](O)[C@H](O[C@@H]7O[C@@H](C)[C@H](O)[C@@H](O)[C@H]7O)[C@H]6O[C@H]6O[C@H](C)[C@@H](O)[C@H](O)[C@@H]6O)CC[C@]5(C)[C@H]4CC[C@]3(C)[C@H]1[C@@H]2C [TACCAOSIDE]	6.8	
